Measurements reported in article PMC6037002, “Drug targeting to decrease cardiotoxicity – determination of the cytotoxic effect of GnRH-based conjugates containing doxorubicin, daunorubicin and methotrexate on human cardiomyocytes and endothelial cells” (Beilstein Journal of Organic Chemistry, 2018).
Read-outs that look alike come from different tables or passages of the source.

Experiments:
[1] = tested on: primary human cardiac myocytes (HCM); details: HCM, three parallels; for delta slope (DS), short-term: 0–2 h; for delta slope (DS), long-term: 0–72 h
[2] = tested on: human umbilical vein endothelial cells (HUVEC); test: Impedimetric measurement (xCELLigence SP), delta slope, HUVEC; details: HUVEC, three parallels; for delta slope (DS), short-term: 0–2 h; for delta slope (DS), long-term: 0–72 h
[3] = tested on: MCF-7 human breast adenocarcinoma cells; details: MTT assay; cited from earlier work
Excerpt: (§1) Table 1 Comparative study of cytotoxic effects and cardiotoxicity elicited by GnRH-based antitumor compounds (1–15) and reference substances (AN-152, Dox, Dau, Mtx). IC50 values show antitumor cytotoxic characteristics of the conjugates in human breast cancer (MCF-7), human colorectal adenocarcinoma (HT-29) and human acute monocytic leukemia (MM6) derived cell lines as representative tumor cells.

[4] = tested on: human acute monocytic leukemia (MonoMac6) cells; details: cited from earlier work
Excerpt: as §1

[5] = tested on: HT-29 human colon adenocarcinoma cells; details: MTT assay; cited from earlier work
Excerpt: as §1

With `COc1cccc2c1C(=O)c1c(O)c3c(c(O)c1C2=O)C[C@@](O)(C(C)=O)C[C@@H]3O[C@H]1C[C@H](N)[C@H](O)[C@H](C)O1` [daunorubicin] the “delta slope (DS), short-term” value ([1]; Table S1b, 10^-6 mol/L) was 0.031, the “delta slope (DS), short-term” value ([1]; Table S1b, 10^-7 mol/L) was -0.001 and the “delta slope (DS), short-term” value ([1]; Table S1b, 10^-8 mol/L) was 0.001. The “delta slope (DS), short-term” value ([1]; Table S1b, 10^-9 mol/L) was -0.001, the “delta slope (DS), short-term” value ([1]; Table S1b, 10^-10 mol/L) was -0.001 and the “delta slope (DS), short-term” value ([1]; Table S1b, 10^-11 mol/L) was -0.001. For the same compound, the “delta slope (DS), short-term” value ([1]; Table S1b, 10^-12 mol/L) was -0.001, the “delta slope (DS), long-term” value ([1]; Table S1b, 10^-6 mol/L) was −0.019 and the “delta slope (DS), long-term” value ([1]; Table S1b, 10^-6 mol/L, listed as Daunorubicin) was -0.019. For the same compound, the “delta slope (DS), long-term” value ([1]; Table S1b, 10^-7 mol/L) was −0.007, the “delta slope (DS), long-term” value ([1]; Table S1b, 10^-7 mol/L, listed as Daunorubicin) was -0.007 and the “delta slope (DS), long-term” value ([1]; Table S1b, 10^-8 mol/L) was -0.001. The “delta slope (DS), long-term” value ([1]; Table S1b, 10^-9 mol/L) was -0.001, the “delta slope (DS), long-term” value ([1]; Table S1b, 10^-10 mol/L) was -0.001 and the “delta slope (DS), long-term” value ([1]; Table S1b, 10^-11 mol/L) was -0.001. For the same compound, the “delta slope (DS), long-term” value ([1]; Table S1b, 10^-12 mol/L) was -0.001, the “delta slope (DS), short-term” value ([1]; Table S3b, 10^-6 mol/L) was 0.028 and the “delta slope (DS), short-term” value ([1]; Table S3b, 10^-8 mol/L) was -0.001. The “delta slope (DS), long-term” value ([1]; Table S3b, 10^-6 mol/L) was -0.021, the “delta slope (DS), long-term” value ([1]; Table S3b, 10^-7 mol/L) was -0.006 and the “delta slope (DS), long-term” value ([1]; Table S3b, 10^-8 mol/L) was -0.001. The “delta slope (DS), short-term” value ([1]; Table S4b, 10^-6 mol/L) was 0.030, the “delta slope (DS), short-term” value ([1]; Table S4b, 10^-7 mol/L) was -0.009 and the “delta slope (DS), short-term” value ([1]; Table S4b, 10^-8 mol/L) was -0.001. The “delta slope (DS), long-term” value ([1]; Table S4b, 10^-6 mol/L) was -0.024, the “delta slope (DS), long-term” value ([1]; Table S4b, 10^-7 mol/L) was -0.009 and the “delta slope (DS), long-term” value ([1]; Table S4b, 10^-8 mol/L) was -0.001. For the same compound, the “delta slope (DS), short-term” value ([1]; Table S5b, 10^-8 mol/L) was -0.001, the “delta slope (DS), long-term” value ([1]; Table S5b, 10^-8 mol/L) was -0.001 and the “delta slope (DS), short-term” value ([2]; Table S1a, 10^-6 mol/L) was 0.047. The “delta slope (DS), short-term” value ([2]; Table S1a, 10^-7 mol/L) was 0.055, the “delta slope (DS), short-term” value ([2]; Table S1a, 10^-8 mol/L) was 0.018 and the “delta slope (DS), short-term” value ([2]; Table S1a, 10^-9 mol/L) was -0.008. The “delta slope (DS), short-term” value ([2]; Table S1a, 10^-10 mol/L) was -0.008, the “delta slope (DS), short-term” value ([2]; Table S1a, 10^-11 mol/L) was 0.008 and the “delta slope (DS), short-term” value ([2]; Table S1a, 10^-12 mol/L) was -0.005. The “delta slope (DS), long-term” value ([2]; Table S1a, 10^-6 mol/L) was −0.019, the “delta slope (DS), long-term” value ([2]; Table S1a, 10^-6 mol/L, listed as Daunorubicin) was -0.019 and the “delta slope (DS), long-term” value ([2]; Table S1a, 10^-7 mol/L) was −0.007. The “delta slope (DS), long-term” value ([2]; Table S1a, 10^-7 mol/L, listed as Daunorubicin) was -0.007, the “delta slope (DS), long-term” value ([2]; Table S1a, 10^-8 mol/L) was -0.001 and the “delta slope (DS), long-term” value ([2]; Table S1a, 10^-9 mol/L) was -0.00113. For the same compound, the “delta slope (DS), long-term” value ([2]; Table S1a, 10^-10 mol/L) was 0.001, the “delta slope (DS), long-term” value ([2]; Table S1a, 10^-11 mol/L) was 0.002 and the “delta slope (DS), long-term” value ([2]; Table S1a, 10^-12 mol/L) was -0.001. The “delta slope (DS), short-term” value ([2]; Table S3a, 10^-6 mol/L) was 0.003, the “delta slope (DS), short-term” value ([2]; Table S3a, 10^-7 mol/L) was -0.002 and the “delta slope (DS), short-term” value ([2]; Table S3a, 10^-8 mol/L) was -0.008. The “delta slope (DS), long-term” value ([2]; Table S3a, 10^-6 mol/L) was -0.010, the “delta slope (DS), long-term” value ([2]; Table S3a, 10^-7 mol/L) was 0.001 and the “delta slope (DS), short-term” value ([2]; Table S4a, 10^-6 mol/L) was 0.009. The “delta slope (DS), short-term” value ([2]; Table S4a, 10^-7 mol/L) was 0.016, the “delta slope (DS), short-term” value ([2]; Table S4a, 10^-8 mol/L) was 0.005 and the “delta slope (DS), long-term” value ([2]; Table S4a, 10^-6 mol/L) was -0.058. The “delta slope (DS), long-term” value ([2]; Table S4a, 10^-7 mol/L) was 0.004, the “delta slope (DS), long-term” value ([2]; Table S4a, 10^-8 mol/L) was 0.006 and the IC50 [3] was 400 ± 100 nM. The IC50 [4] was 0.08 ± 0.1 nM and the IC50 [5] was 300 ± 200 nM.
